Assay results reported in BindingDB's records for doi:10.1007/s10822-022-00478-x (Roche Innovation Center Basel, F. Hoffmann-La Roche Ltd., 2022).

Target: cAMP and cAMP-inhibited cGMP 3',5'-cyclic phosphodiesterase 10A (Homo sapiens, UniProt Q9Y233)
Assay: PDE10A assay
In short: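 Scintillation proximity readout of [3H]cGMP hydrolysis (50 nM final substrate, 15 min) by 2 ng/well human PDE10A after 15 min compound preincubation at RT, pH 7.5 with MgCl2. Four-parameter logistic fit gave IC50, reported as pIC50.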

IC50 | SMILES
376 nM | O=C(NCc1ccc(F)c(F)c1)c1nc(C2CC2)cnc1Nc1cncnc1 [Roche-Dataset for PDE10A, Compound 799]
3190 nM | Cn1ncc(C(=O)N2CCC2)c1C(=O)Nc1cn(-c2cccc(C(F)(F)F)n2)cn1 [Roche-Dataset for PDE10A, Compound 802]
728 nM | O=C(NCC1(c2ccccc2)CCCCC1)c1nc(C2CC2)cnc1Nc1cncnc1 [Roche-Dataset for PDE10A, Compound 804]
62 nM | C/C(=C\c1nc2c(C)ncc(C)n2n1)c1nc(N2CCCC2)nn1C [Roche-Dataset for PDE10A, Compound 805]
53 nM | CNC(=O)Cc1ccccc1NC(=O)c1nc(C2CC2)ccc1Nc1cncnc1 [Roche-Dataset for PDE10A, Compound 809]
179 nM | Cc1nc2ccccc2nc1OCc1nc(-c2ccc(Cl)cc2)cn1C [Roche-Dataset for PDE10A, Compound 810]
20 nM | O=C(Nc1nc2cccnc2s1)c1nc(C2CC2)ccc1Nc1cncnc1 [Roche-Dataset for PDE10A, Compound 811]
63 nM | CC(C)Oc1cncc(NC(=O)c2nc(C3CC3)cnc2Nc2cncnc2)c1 [Roche-Dataset for PDE10A, Compound 816]
389 nM | NS(=O)(=O)c1ccc(CNC(=O)c2nc(C3CC3)cnc2Nc2cncnc2)cc1 [Roche-Dataset for PDE10A, Compound 817]
7.58 nM | O=C(Nc1snnc1-c1ccccc1)c1nc(C2CC2)ccc1Nc1cncnc1 [Roche-Dataset for PDE10A, Compound 818]
10000 nM | CCOC(=O)c1cnn(C)c1C(=O)N(C)c1ccn2nc(-c3ccccc3)nc2c1 [Roche-Dataset for PDE10A, Compound 825]
5.85 nM | CC(=O)N1CCc2ccc(NC(=O)c3nc(C4CC4)cnc3Nc3cncnc3)cc21 [Roche-Dataset for PDE10A, Compound 827]
169 nM | Cc1ncc(C)n2nc(CCc3nc(-n4cccn4)nn3C)nc12 [Roche-Dataset for PDE10A, Compound 836]
499 nM | O=C(NCc1cccc(F)c1)c1nc(C2CC2)cnc1Nc1cncnc1 [Roche-Dataset for PDE10A, Compound 837]
1230 nM | CC(C)c1nc2cc(NC(=O)c3c(C(=O)O)cnn3C)ccn2n1 [Roche-Dataset for PDE10A, Compound 848]
48 nM | CN1C(=O)c2ccc(NC(=O)c3nc(C4CC4)ccc3Nc3cncnc3)cc2C1=O [Roche-Dataset for PDE10A, Compound 849]
50 nM | Cn1cc(-c2ccccc2)nc1CCc1nc2c(cnn2C)c(=O)[nH]1 [Roche-Dataset for PDE10A, Compound 854]
134 nM | O=C(Nc1cncc(OC(F)F)c1)c1nc(C2CC2)cnc1Nc1cncnc1 [Roche-Dataset for PDE10A, Compound 855]
314 nM | CN(C)CCn1nccc1NC(=O)c1nc(C2CC2)cnc1Nc1cncnc1 [Roche-Dataset for PDE10A, Compound 857]
322 nM | Cc1ccc(CNC(=O)c2cnn(C)c2C(=O)Nc2ccn3cc(-c4ccccc4)nc3n2)nc1 [Roche-Dataset for PDE10A, Compound 862]
117 nM | COCCn1ccc(NC(=O)c2nc(Cl)ccc2Nc2cncnc2)n1 [Roche-Dataset for PDE10A, Compound 864]
43 nM | COCCn1nccc1NC(=O)c1nc(C2CC2)ccc1Nc1cncnc1 [Roche-Dataset for PDE10A, Compound 868]
9.64 nM | CC(=O)c1cc(NC(=O)c2nc(C3CC3)cnc2Nc2cncnc2)ccc1F [Roche-Dataset for PDE10A, Compound 869]

Second part, the compound before the results:

SMILES | IC50
O=C(NCCCN1CCCC1=O)c1nc(C2CC2)cnc1Nc1cncnc1 [Roche-Dataset for PDE10A, Compound 795] | 1110 nM
CS(=O)(=O)c1ccc(CNC(=O)c2nc(C3CC3)cnc2Nc2cncnc2)cc1 [Roche-Dataset for PDE10A, Compound 800] | 554 nM
O=C(Nc1cccc(N2CCOCC2)c1)c1nc(C2CC2)cnc1Nc1cncnc1 [Roche-Dataset for PDE10A, Compound 812] | 13 nM
Cc1ncc(C(=O)Nc2ccn3nc(-c4ccccc4)nc3c2)cn1 [Roche-Dataset for PDE10A, Compound 813] | 10000 nM
CCCCc1cc(NC(=O)c2c(C(=O)N3CCC3)cnn2C)n(C2CCCC2)n1 [Roche-Dataset for PDE10A, Compound 814] | 619 nM
O=C(Nc1ccnc(N2CCOCC2)c1)c1nc(C2CC2)cnc1Nc1cncnc1 [Roche-Dataset for PDE10A, Compound 815] | 8.56 nM
CCn1ccc(NC(=O)c2nc(C3CC3)ccc2Nc2cncnc2)n1 [Roche-Dataset for PDE10A, Compound 819] | 72 nM
COc1ccc(-c2nc3cc(NC(=O)c4c(C(=O)N5CCC5)cnn4C)ccn3n2)cc1 [Roche-Dataset for PDE10A, Compound 820] | 7.9 nM
CC(=O)N(C)c1cccc(NC(=O)c2nc(C3CC3)cnc2Nc2cncnc2)c1 [Roche-Dataset for PDE10A, Compound 821] | 135 nM
O=C(NC1CCN(Cc2ccccc2)CC1)c1nc(C2CC2)cnc1Nc1cncnc1 [Roche-Dataset for PDE10A, Compound 823] | 5050 nM
CN(C)CCn1ccc(NC(=O)c2nc(C3CC3)cnc2Nc2cncnc2)n1 [Roche-Dataset for PDE10A, Compound 828] | 29 nM
O=C(Nc1cccc(C(=O)N2CCCC2)n1)c1nc(C2CC2)cnc1Nc1cncnc1 [Roche-Dataset for PDE10A, Compound 830] | 10 nM
O=C(Nc1cccc(N2CCCC2=O)c1)c1nc(C2CC2)ccc1Nc1cncnc1 [Roche-Dataset for PDE10A, Compound 831] | 24 nM
O=C(Nc1nc(CN2CCCCC2)cs1)c1nc(C2CC2)cnc1Nc1cncnc1 [Roche-Dataset for PDE10A, Compound 832] | 32 nM
Cn1ncc(C(=O)N2CCC2)c1C(=O)Nc1cn(-c2ccccn2)cn1 [Roche-Dataset for PDE10A, Compound 833] | 46 nM
O=C(NCc1cn2ccsc2n1)c1nc(C2CC2)cnc1Nc1cncnc1 [Roche-Dataset for PDE10A, Compound 838] | 38 nM
O=C(NCCNS(=O)(=O)c1ccccc1)c1nc(C2CC2)cnc1Nc1cncnc1 [Roche-Dataset for PDE10A, Compound 839] | 403 nM
CSc1nc2cc(NC(=O)c3c(C(=O)N4CCC4)cnn3C)ccc2s1 [Roche-Dataset for PDE10A, Compound 840] | 331 nM
Cc1ncc(C)n2nc(CCc3nc(N(C)CC4CC4)nn3C)nc12 [Roche-Dataset for PDE10A, Compound 841] | 117 nM
COCCN(C)c1nc(CCc2nc3c(C)ncc(C)n3n2)nn1C [Roche-Dataset for PDE10A, Compound 847] | 1780 nM
O=C(Nc1ccn(CC(F)(F)F)n1)c1nc(Cl)ccc1Nc1cncnc1 [Roche-Dataset for PDE10A, Compound 859] | 156 nM
O=C(Nc1ccnn1CCO)c1nc(C2CC2)ccc1Nc1cncnc1 [Roche-Dataset for PDE10A, Compound 860] | 49 nM
Cc1c(Cl)cc(Cl)c2nc(CCc3nn(C)cc3Cl)nn12 [Roche-Dataset for PDE10A, Compound 861] | 333 nM
CCCNC(=O)c1cc(NC(=O)c2c(C(=O)N3CCC3)cnn2C)nn1C [Roche-Dataset for PDE10A, Compound 871] | 10000 nM
